From patent publication US11584712B2, “Alkylamine-substituted perthiocarbamates as dual precursors to hydropersulfide and carbonyl sulfide” (The Johns Hopkins University, priority 2020, dated 2023)
“And” between values parts separate entries of the source, which are not always exact repeats. Equal values may be shown once. “Also recorded” adds a separate entry of the source.

Key:
Type in all cases: physicochemical
[1] = RSSH generation in the presence of N-acetyl cysteine by UPLC-MS; settings: NAC 500 μM, 37° C.; for Byproduct % (yield of cyclic urea 2a-d): precursor 100 μM, pH 7.4 ammonium bicarbonate buffer with DTPA
Procedure: […] The resulting mixture was incubated at 37° C. An aliquot (200 μL) of reaction mixture was withdrawn at specified time points and quenched with 1% formic acid (200 μL). 3-Amino-benzoic acid (50 μM) was added to each sample as internal standard prior to UPLC-MS analysis. To quantify 2a-d generated from these precursors, a calibration curve for each individual cyclic urea with known concentrations was independently generated.
[…] The resulting mixture was incubated at 37° C. An aliquot ([…]) of reaction mixture was withdrawn at specified time points and quenched with 1% formic acid (200 μL). 3-amino-benzoic acid (50 μM) was added to each sample as internal standard prior to UPLC-MS analysis. To quantify 2a-d generated from these precursors, the calibration curve of each individual cyclic urea with known concentrations was independently generated.

[2] = COS release using membrane inlet mass spectrometry (MIMS); settings: for COS release (m/z=60 signal): precursor 50 μM, pH 7.4 phosphate buffer saline with DTPA, 37° C.
Procedure: (§1) COS was analyzed using a Hiden HPR-40 MIMS system with a sample cell and membrane probe that have been optimized to detect gases dissolved in aqueous solution as described previously. Cline et al., 2011. A stock solution of N-acetyl-cysteine (25 mM) was prepared in DI water. RSSH precursor stock solutions (5 mM) were prepared in DMSO. These solutions were degassed by purging with nitrogen for 10 min before COS release analysis. Typically, 20 mL phosphate buffer solution (10 mM) was added to the sample cell, degassed and purged with a continuous flow of argon for 15 min. N-acetyl cysteine (200 μL, 25 mM) and RSSH precursor (200 μL, 5 mM) were then injected using a gas tight syringe and ion current at m/z 60 (COS^+) were collected for 2 h (source pressure was approximately 1×10^−7 to 5×10^−7 Torr).
as §1, with “(COS*)” for “(COS^+)”

[3] = Kinetics of RSSH release from precursors monitored by HPLC (HPE-IAM trapping); settings: for Hydropersulfide Yield (%): precursor 100 μM, HPE-IAM 5 mM, pH 7.4 phosphate buffer with DTPA
Procedure: (§2) Precursors 7a-d were dissolved in DMSO to afford 10 mM stock solutions. HPE-IAM was dissolved in DMSO to obtain a 100 mM stock solution. […] This solution was pre-incubated for 10 min at 37° C. and then precursor 7a-d (30 μL, 10 mM) were independently added into the mixture. The resulting solution was incubated at 37° C. At different time points, an aliquot of 200 μL was taken and quenched with 200 μL […] solution. These samples were stored at 0° C. until HPLC analysis was performed. The sample (20 μL) was injected into a high-performance liquid chromatography (HPLC) equipped with Phenomenex C-18 reverse phase column (250 mm×4.6 mm, 5 μm). HPLC Method: mobile phase A (H2O) and mobile phase B (ACN), flow rate: 1 mL/min, run time: 20 min, the gradient elution method: 10% to 40% B from 0 to 12 min, 40% to 80% B from 12 to 20 min. The elution was monitored by a UV detector at 275 nm. A calibration curve was generated using RSS-HPE-AM 9 to quantify RSSH generation from 7a-d.
as §2, with “by a variable UV detector” for “by a UV detector”

| Compound | Byproduct % (yield of cyclic urea 2a-d) [1] | COS release (m/z=60 signal) ([2]; NAC 0.25 mM (5 equiv.)) | Hydropersulfide Yield (%) ([3]; 37° C.) | COS release (m/z=60 signal) ([2]; without NAC) | rate constant k of RSSH release ([3]; pH 6.0) | first-order rate constant k of RSSH release (RSS-HPE-AM 9 generation) ([3]; pH 7.4 phosphate buffer, HPE-IAM, 37° C., HPLC) | rate constant k of RSSH release ([3]; pH 8.0) | RSSH release under acidic conditions ([1]; 7b 100 μM, pH 6.0 ammonium acetate buffer 50 mM, 12 h) | COS release in the presence of GSH compared with NAC ([2]; pH 7.4, GSH) |
| --- | --- | --- | --- | --- | --- | --- | --- | --- | --- |
| 3-(((3-acetamido-4-methoxy-2-methyl-4-oxobutan-2-yl)disulfannecarbonyl)(methyl)amino)-N-methylpropan-1-aminium [Precursor 7c] | 19.2 ± 0.5% | produce mainly COS | 90% and 90 ± 1% |  |  |  |  |  |  |
| CNCCN(C)C(=O)SSC(C)(C)C(NC(C)=O)C(=O)OC (stereo not drawn) [Precursor 7a, 2-(((3-acetamido-4-methoxy-2-methyl-4-oxobutan-2-yl)disulfannecarbonyl)(methyl)amino)-N-methylethan-1-aminium] | 87% and 87 ± 1% | small additional increase | 89% and 89 ± 3% | very small increase | 0.031 min⁻¹ | 0.505 min⁻¹ and 0.505 ± 0.019 min⁻¹ | 2.58 min⁻¹ |  |  |
| COC(=O)C(NC(C)=O)C(C)(C)SSC(=O)N(C)CCN (stereo not drawn) [Precursor 7b, 2-(((3-acetamido-4-methoxy-2-methyl-4-oxobutan-2-yl)disulfannecarbonyl)(methyl)amino)ethan-1-aminium] | 58% and 58 ± 0.7% | increased production of COS | 94 ± 1% |  |  |  |  | still observed, albeit at a slower rate; also recorded: slow RSSH release under acidic conditions | slightly higher/faster COS release |
